In data set [1] the test system is TNF-α release from mouse spleen cells. The data set is described as follows: LPS-induced release of TNF-α from mouse spleen cells (CBA). The class given is cell-based. Particulars: 24 hours, read-out: Inhibition rate, TNF-α (Th1). The text has this:
(§1) Evaluate the inhibitory effect of the compound on LPS-induced release of cytokines involved in the Th1 pathway such as TNF-α and IL-6 from mouse spleen cells by measuring the levels of the cytokines involved in the Th1 pathway such as TNF-α and IL-6 in the culture supernatant of mouse spleen cells. Cells: spleen cells isolated from the spleens of normal C57BL/6 mice 1) The mice were sacrificed under aseptic conditions, and the spleens were collected and ground in a filter having a pore size of 70 μm. The obtained cell suspension was collected. 6) The cells were added to a 96-well plate (100 μL/well, 1×10^5 cells/well); LPS was formulated with culture medium into a 4 μg/ml solution, and then the solution was added to the cell culture well at 50 μl per well. The compound was dissolved in DMSO to give a solution of 100 mM, and then the solution was diluted with DMSO to obtain 3 gradients, which were 30 mM, 10 mM, and 3 mM, respectively. For each gradient, 4 μl of the solution was added to 1 ml of culture medium to form a mixture with a concentration of 120 μM, 40 μM, or 12 μM, respectively. 50 μl of the mixture was added to a corresponding well to a final concentration of 30 μM, 10 μM, or 3 μM, respectively. […] Then, the supernatant was collected, and the levels of TNF-α and IL-6 therein were detected by CBA.

Data set [2] in a line: Study on polymorphism of the compound of Formula (II) (stirring in solvent, XRPD). Type of data set: physicochemical. Particulars: stirred at 40° C. for 2 days in the dark. As for the experimental part: The compound of Formula (II) was dissolved in a corresponding solvent and stirred at 40° C. for 2 days in the dark. The solution was then centrifuged to obtain a precipitate which was dried and subjected to XRPD detection.

Data set [3] deals with IL-6 release from mouse spleen cells. The data set is described as follows: LPS-induced release of IL-6 from mouse spleen cells (CBA). Type of data set: cell-based. Particulars: 24 hours, read-out: Inhibition rate, IL-6 (Th1).
Text: as §1

The subject of data set [4] is TGF-β release from mouse peritoneal macrophages. The data set is described as follows: Release of TGF-β from mouse peritoneal macrophages (ELISA). The class given is cell-based. Particulars: Peritoneal macrophage, 24 hours, read-out: Inhibition rate, fibrosis factor TGF-β. How it is done:
Evaluate the inhibitory effect of the compound on the release of TGF-β from mouse peritoneal macrophages by measuring the level of TGF-β in the culture supernatant of mouse peritoneal macrophages. Cells: Macrophages collected by peritoneal lavage of normal Balb/c mice 7) The macrophages were added to a 48-well plate at 250 μL/well, i.e. 4×10^5 cells/well; 2) A stimulating solution containing TNFα and IL-13 both at a concentration of 80 ng/mL was prepared with serum-free medium, and added to the wells plated with cells at 125 μL/well. Three wells were left without the addition of the stimulating solution and used as a blank control; The compound was dissolved in DMSO to give a solution of 100 mM, and then the solution was diluted with DMSO to obtain 3 gradients, which were 30 mM, 10 mM, and 3 mM, respectively. For each gradient, 4 μl of the solution was added to 1 ml of culture medium to form a mixture with a concentration of 120 μM, 40 μM, or 12 μM, respectively. 125 μl of the mixture was added to a corresponding well to a final concentration of 30 μM, 10 μM, or 3 μM, respectively. Dexamethasone was added as a positive drug to a separate well containing cells at a final concentration of 100 nM. […] Then, the supernatant was collected, and the level of TGF-β therein was detected by ELISA.

Data set [5] has as its system left unilateral pulmonary fibrosis. The data set is described as follows: SD rat model of left unilateral pulmonary fibrosis. Type of data set: in vivo.
Data set [6] relates to IFN-γ release from mouse spleen cells. Description: Release of IFN-γ from anti-CD3 stimulated mouse spleen cells (CBA). The class given is cell-based. Particulars: anti-CD3, 24 hours, read-out: Inhibition rate, IFN-γ (Th1). How it is done: (§2) Evaluate the inhibitory effect of the compound on the release of cytokines involved in the Th1 pathway such as IFN-γ and IL-2 from mouse spleen cells by measuring the levels of cytokines involved in the Th1 pathway such as IFN-γ and IL-2 in the culture supernatant of mouse spleen cells. Cells: spleen cells isolated from the spleens of normal C57BL/6 mice The anti-mouse CD3 antibody diluted to 5 μg/mL with DPBS was added to a 96-well plate at 100 μL/well. The culture plate was allowed to stand at 4° C. overnight; 1) The mice were sacrificed under aseptic conditions, and the spleens were collected and ground in a filter having a pore size of 70 μm. The obtained cell suspension was collected. 2) The cells were added to the wells coated with the anti-mouse CD3 antibody at 50 μL/well, i.e. 1×10^5 cells/well; and meanwhile, the cells were added to un-coated wells in the same amount, as a negative control; The compound was dissolved in DMSO to give a solution of 100 mM, and then the solution was diluted with DMSO to obtain 3 gradients, which were 30 mM, 10 mM, and 3 mM, respectively. For each gradient, 4 μl of the solution was added to 1 ml of culture medium to form a mixture with a concentration of 120 μM, 40 μM, or 12 μM, respectively. […] Then, the supernatant was collected, and the levels of IFN-γ and IL-2 therein were detected by CBA.

In data set [7] the test system is IL-2 release from mouse spleen cells. Description: Release of IL-2 from anti-CD3 stimulated mouse spleen cells (CBA). The class given is cell-based. To be noted: anti-CD3, 24 hours, read-out: Inhibition rate, IL-2 (Th1). How it is done:
as §2

Data set [8] concerns IL-13 release from mouse spleen cells. The data set is described as follows: Release of IL-13 (Th2 pathway) from mouse spleen CD4+ T cells (CBA). To be noted: Th2 induction, 72 hours, read-out: Inhibition rate, IL-13 (Th2). Type of data set: cell-based. How it is done: Evaluate the inhibitory effect of the compound on LPS-induced release of cytokines involved in the Th2 pathway such as IL-13 from mouse spleen cells by measuring the levels of cytokines involved in the Th2 pathway such as IL-13 in the culture supernatant of mouse spleen cells. Cells: CD4+ cells isolated and sorted from the spleens of normal C57BL/6 mice The anti-mouse CD3 antibody diluted to 5 μg/mL with DPBS was added to a 96-well plate at 100 μL/well. The culture plate was allowed to stand at 4° C. overnight; 6) CD4+ T cells were isolated by using the Mouse CD4+ T Cell Isolation Kit, and the isolated cells were adjusted to a concentration of […]; 8) The isolated CD4+ T cells were added to the wells coated with the anti-CD3 antibody at 50 μL/well, i.e. 1×10^5 cells/well; and meanwhile, the CD4+ T cells were added to un-coated wells in the same amount, as a negative control; The mouse anti-IFNγ antibody and anti-IL-12 antibody were simultaneously added to the culture medium both at a concentration of 40 μg/mL, and mouse IL-4 was added thereto at a concentration of 40 ng/mL. An induction solution was prepared and added to the wells that had been plated with cells and coated with anti-CD3 antibody at 50 μL/well. […] Then, the supernatant was collected, and the level of IL-13 therein was detected by CBA.

In data set [9] the test system is IL-6 release from THP-1 cells. The data set is described as follows: LPS-induced release of IL-6 from THP-1 cells (CBA). Type of data set: cell-based. Particulars: Homo sapiens, LPS-stimulated THP-1 cells, 24 hours, read-out: Inhibition rate @10 uM (IL-6). As for the experimental part:
Evaluate the inhibitory effect of the compound on LPS-induced release of IL-6 from THP-1 cells by measuring the level of IL-6 in the cell culture supernatant.
Cell line: THP-1 cell line
4) THP-1 cells were diluted with culture medium to 5×10^5 cells/mL and the diluted cells were added to a 96-well plate (100 μl/well, […]);
1) The compound was dissolved in DMSO to give a solution of 30 mM, and then the solution was 3-fold diluted with DMSO into 4 gradients, which were 30 mM, 10 mM, 3 mM, and 1 mM, respectively. For each gradient, 4 μl of the solution was added to 1 ml of culture medium to form a mixture with a concentration of 120 uM, 40 uM, 12 uM, or 4 uM, respectively. Then, 50 ul of the mixture was added to a well containing cells to a final concentration of 30 uM, 10 uM, 3 uM, or 1 uM, respectively. Dexamethasone was added as a positive drug to a separate well containing cells at a final concentration of 100 nM.
1 mg/ml of a LPS solution was diluted to 800 ng/ml with culture medium, and the diluted solution was added to the cell culture well at 50 ul per well.
The cell culture plate was placed in a 37° C. incubator and incubated for 24 hours. Then, the supernatant was collected, and the level of IL-6 therein was detected by CBA.

Data set [10] can be described thus: Solid physical stability test of Crystal Form A under different temperature, humidity and light conditions. Type of data set: physicochemical. To be noted: Day 10. As for the experimental part: The vial was sealed with aluminum-foil paper which was punched to generate some small holes to ensure that the sample could fully contact with the ambient air. The 4 samples as prepared were placed under conditions of 25° C./92.5% relative humidity, 60° C., 40° C./75%, and light. The physical stability of the samples on day 10 was examined. […] On day 10, all samples were taken and returned to room temperature. The appearance change of the samples was observed, and the crystal form of the samples was examined by XRPD.

Data set [11] is described as follows: Solid stability test of Crystal Form A under high temperature and high humidity conditions. The class given is physicochemical. As for the experimental part:
The vial was sealed with aluminum-foil paper which was punched to generate some small holes to ensure that the sample could fully contact with the ambient air. The vial was placed in a chamber with a constant temperature and humidity of 40° C. and 75%. Samples were placed under the above conditions and tested on day 5 and day 10. The test results were compared with the initial test results as measured on day 0.

Where [12] appears, read: 25° C./92.5% relative humidity (open).
Where [13] appears, read: 40° C./75% relative humidity (open).
Where [14] appears, read: stored at −20° C. in a confined space (control sample).
[15] abbreviates: 40° C. and 75% humidity, open, day 5.
The mark [16] stands for this setting: 40° C. and 75% humidity, open, day 10.

Some results are limits rather than exact numbers.

Take `C=C1CCC2[C@]3(C)CO[C@@H](C4CCCC4)O[C@@H]3CC[C@@]2(C)[C@@H]1CCOC1CCN(C)CC1.O=C(O)CC(O)(CC(=O)O)C(=O)O` (stereo in doubt) [compound of Formula (II)]: the inhibition at 30 µM in [1] was found to be 40.3%. Besides, the Crystal form result in [2] (Ethanol) and in [2] (Methanol) was “Crystal Form A” throughout. The inhibition at 10 µM turned out to be 48% in [3]; 51% in [4]; 85.3% in [6]; 78.2% in [7]; 99.9% in [8]. The “Inhibitory effect on IPF” value in data set [5] is “significant inhibitory effect”.
In the case of `C=C1CCC2[C@]3(C)CO[C@@H](C4CCCC4)O[C@@H]3CC[C@@]2(C)[C@@H]1CCOC1CCN(C)CC1` (some centres unmarked) [Compound h], the inhibition at 10 µM in data set [9] is over 60%.
Turning to `C=C1CCC2[C@]3(C)CO[C@@H](C4CCCC4)O[C@@H]3CC[C@@]2(C)[C@@H]1CCOC1CCN(C)CC1.O=C(O)CC(O)(CC(=O)O)C(=O)O` (some centres unmarked) [Crystal Form A], the Characters result in [10] (setting [12]), in [10] (setting [13]), in [10] (60° C. (open)), in data set [10] (light) and in data set [10] (setting [14]) was “Off-white powder” in each case. In addition, the Crystal form result in [10] (setting [12]), in data set [10] (setting [13]), in data set [10] (60° C. (open)), in data set [10] (light), in data set [10] (setting [14]) and in data set [11] (setting [15]) was “Crystal Form A” each time. In addition, the Crystal form result in data set [11] (setting [16]) and in [11] (day 0 (initial)) was “Crystal Form A” each time. Moreover, the Appearance entry in data set [11] (setting [15]), in data set [11] (setting [16]) and in [11] (day 0 (initial)) was “Off-white powder” each time. Besides, the “Purity (%)” value in [11] (setting [15]) is on record as 98.37%; in [11] (setting [16]), 98.45%; in data set [11] (day 0 (initial)), 98.51%. Besides, the “Total impurities (%)” value in data set [11] (setting [15]) is 1.61%; in data set [11] (setting [16]), 1.55%; in data set [11] (day 0 (initial)), 1.49%.

The values above are taken from US11299482B2, “Salt and crystal form of modified andrographolide compound and preparation method thereof” (HEILONGJIANG ZHENBAODAO PHARMACEUTICAL CO, LTD, priority 2017, dated 2022).
